# Measurements: patent US9765300B2, “Hepatic cell lines and stem-like cells, methods of making and using the same” (priority 2014, dated 2017)
# Key:
# [1] = test system: Hepa-SC cells; conditions: 10 μM; cited from earlier work
# [2] = test system: HEPARG® cells; assay: Comparative study of epigenetic modulators for HEPARG reprogramming to Hepa-SC (toxicity in culture); assay type: cell-based, human; conditions: even at low concentration, in our culture conditions
# From the text: • Step 1: Culturing the parental cells in a culture medium that has been modified in order to eliminate all factors supporting differentiation processes during a 2-passage culture period; • Step 2: Inducing mechanical stress such as shape constraint, onto the cells in order to generate a reprogramming signal toward stemness that should be associated with occurrence of a mechano-transduction signaling in all the cells in a synchronized manner, resulting in expression of a “stem cell signature” at the genome level; • Step 3: Inducing the stability of this stem cell fate by epigenetic mechanism, for instance by exposing the cells to methylation/acetylation modulators such as HDAC molecules. Epigenetic modifications refer to mitotically heritable changes in gene expression that are not coded in the DNA sequence itself (Levenson J M, Sweatt J D., 2005). The chosen epigenetic molecule should neither alter cell proliferation activity nor provoke toxicity effects and/or apoptotic induction. 5-azacytidine inhibits DNA methylation. It has been preferentially chosen for HEPARG® reprogramming to Hepa-SC stem-like cells after comparative study with Bix 01294, a small molecule known to inhibit the histone H3 methylation. […]
# [3] = test system: Hepa-RP; assay: Cholestatic drug screening: alterations of bile saccular canaliculi in Hepa-RP; assay type: cell-based, human; conditions: Hepa-RP at passage 29 (10 passages with a corticoid-free medium)
# [4] = test system: CYP450 enzymes
smiles,measurement,setting,value
Nc1ncn([C@H]2C[C@H](O)[C@@H](CO)O2)c(=O)n1 [5-aza-2′-deoxycytidine],inhibition of cell proliferation,[1],does not inhibit cell proliferation
same,visible cell toxicity,[1],does not induce visible cell toxicity
COc1cc2nc(N3CCCN(C)CC3)nc(NC3CCN(Cc4ccccc4)CC3)c2cc1OC [Bix 01294],toxicity compared with 5-azacytidine,[2],much more toxic
CN(C)CCCN1c2ccccc2Sc2ccc(Cl)cc21 [Chlorpromazine],cholestatic effect on the bile saccular canaliculi (alteration),[3],constriction
C[S+](C)[O-] [DMSO],induction of three distinct CYP450 enzymes activity,[4],induced
O=S(=O)(c1cccc2cnccc12)N1CCCNCC1 [Fasudil],cholestatic effect on the bile saccular canaliculi (alteration),[3],dilatation
